Holding throughout (type): binding, Bubalus bubalis
Experiment [1] deals with T1, OBP1a (bnOBP isoform 1a; also printed 1OBPa).
T1 construct: gene OBP
As to the kind of experiment: fluorescence titration. Conditions: 50 mM Tris-HCl, 300 mM NaCl, pH 8.0; 2 µM protein; fluorescent probe; read-out: dissociation constant.

The target is the same in experiment [2]. As to the kind of experiment: competitive 1-NPN displacement fluorescence. The conditions noted are these: 2 µM protein, 2 µM 1-NPN, 50 mM Tris-HCl, 300 mM NaCl, pH 8.0; competitive with 1-NPN.
For experiment [3] the target is unchanged. The experiment in a line: competitive 1-NPN displacement fluorescence. The conditions noted are these: 2 µM protein, 2 µM 1-NPN, 50 mM Tris-HCl, 300 mM NaCl, pH 8.0; competitive with 1-NPN. An excerpt: competitive 1-NPN displacement fluorescence on OBP1a (bnOBP isoform 1a; also printed 1OBPa)
This is another data set of the same source.

Molecules are shown by their SMILES.

Turning to `c1ccc(Nc2cccc3ccccc23)cc1` [N-phenyl-1-naphthylamine], the Kd in experiment [1] worked out at 0.7 µM.

`CCCCCCCC/C=C\CCCCCCCC(=O)O` [oleic acid] showed an inhibition constant Ki in experiment [2] of 4.2 µM. As for `Cc1ccc(O)cc1` [p-cresol], the inhibition constant (Ki) in experiment [3] is 266 µM; in experiment [2], 3.5 µM.

(Values after publication doi:10.1101/2020.09.17.301234v1, “Molecular and functional characterization of buffalo nasal epithelial odorant binding proteins and their structural insights by in-silico and biochemical approach” (biorxiv, 2020).)
